Test results reported in patent US20150125904A1, “PROBE INCORPORATION MEDIATED BY ENZYMES” (Massachusetts Institute of Technology, priority 2012, published 2015).
Read-outs that look alike come from different tables or passages of the source.

Tests used:
[1] = Kinetic analysis of the CuAAC reaction (fluorogenic click with 7-ethynyl coumarin); settings: for effect of ring substituent on CuAAC reaction: 10 μM CuSO4, no ligand; for improvement in initial CuAAC rate over carbocyclic analog: 10 μM CuSO4, no accelerating ligand, 2 vs 1, 4 vs 3
Description: FIG. 4 is a graph illustrating in vitro analysis of CuAAC rates with chelating azides. A: A fluorogenic click reaction with 7-ethynyl coumarin was used to quantify CuAAC reaction progress. Zhou et al., JACS, 126:8862-8863 (2004). B: Various chelating azide structures tested and their CuAAC reaction yields after 10 min and 30 min. Reactions were run with 10 μM CuSO4 and no ligand (THPTA or BTTAA). C: Kinetic comparison of chelating azide 4 and its non-chelating benzyl counterpart 3 at different copper concentrations. CuAAC product was quantified using the assay in A), at 100, 40, and 10 μM CuSO4, both in the absence and presence of Cu(I) ligand THPTA. Measurements were performed in triplicate. Error bars, ±s.d.
Fluorescence was converted to coumarin triazole product quantity by comparison to standard curves, individually generated for each azide-coumarin alkyne adduct. Entries with less than 1% reaction yield (azides 1 and 3) are omitted from the plot. Measurements were performed in triplicate. Error bars, ±s.d.
General reaction conditions: 20 μM azide, 40 μM 7-ethynyl coumarin (A), and 4 mM sodium ascorbate in 100 mM sodium phosphate buffer at pH 7.4 at 25±1° C. 100 μM Tempol was added to each reaction to minimize Cu-dependent fluorescence quenching of 7-ethynyl coumarin and coumarin-triazoles. FIG. 4A.
Reactions were initiated by the addition of CuSO4: 10 μM for the azide compounds shown in FIG. 4B, and 10, 40, or 100 μM for the compounds shown in FIG. 4C. In FIG. 4C when THPTA was included, the THPTA:copper ratio was fixed at a 4:1 molar ratio. Coumarin fluorescence was recorded on a Tecan SAFIRE microplate reader at 2-min intervals for 30 min with excitation at 320 nm and emission detection at 430 nm. For each azide, the turn-on fluorescence of coumarin was correlated to % conversion to product using a calibration curve made from a mixture of known concentrations of 7-ethynyl coumarin and coumarin-triazole adduct of each azide, as follows:
Coumarin-triazole standards for azide 1, 2, 5, 6, and 7 (FIG. 4B) were generated from reacting 120 μM of each azide with 100 μM 7-ethynyl coumarin until 7-ethynyl coumarin was fully converted to the triazole adduct, using 100 μM CuSO4, 400 μM THPTA, and 4 mM sodium ascorbate. […] Such reaction mixture, now representing coumarin-triazole of a known concentration (100 μM), was then mixed with 7-ethynyl coumarin in defined ratios in the presence of 20-fold molar excess of EDTA relative to CuSO4, (which was carried over from the triazole generation reaction), to generate the calibration curve above.
Coumarin-triazole standards for azide 3 and 4 were generated from purified coumarin-triazole adducts for each azide (synthetic methods described below). Calibration curves were generated for azide 3 and 4 using coumarin-triazoles from crude reaction mixtures as described above, and found them to perform similarly to calibration curves generated from purified triazoles. FIG. 4C.

Wild-type LplA = biological target: T1, Wild-type LplA (Escherichia coli, UniProt P32099); settings: cited from earlier work
T1 construct: His6 (N); made in house; host or cells: E. coli
T1 sequence (P32099 2-338): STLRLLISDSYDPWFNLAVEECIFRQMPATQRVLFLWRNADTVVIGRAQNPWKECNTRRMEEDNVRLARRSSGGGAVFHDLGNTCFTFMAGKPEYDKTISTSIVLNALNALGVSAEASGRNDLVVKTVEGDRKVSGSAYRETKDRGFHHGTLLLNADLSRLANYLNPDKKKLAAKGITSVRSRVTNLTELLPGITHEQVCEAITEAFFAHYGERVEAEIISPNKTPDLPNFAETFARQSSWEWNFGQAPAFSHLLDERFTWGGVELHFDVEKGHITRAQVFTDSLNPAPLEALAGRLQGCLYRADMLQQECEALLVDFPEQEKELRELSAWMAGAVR

[2] = cited from earlier work
LAP-CFP-TM on HEK cells [3] = assay: Enzyme-catalyzed azide ligation efficiencies at the cell surface (anti-lipoic acid antibody staining); type: cell-based, human; settings: for lipoylation of remaining LAP sites after azide labeling, relative to condition 3 (100%): 20 min azide ligation, picolyl azide 8 with W37VLplA, 8-azidooctanoic acid with wild-type LplA; for estimated extent of azide ligation: indirectly estimated from lipoylation extent, 20 min
Description: A: Labeling protocol. HEK cells expressing LAP-CFP-TM were labeled with picolyl azide 8 and W37VLplA, or 8-azidooctanoic acid and wild-type LplA, using the same exact conditions as in FIGS. 6 and 9. Thereafter, cells were washed and any remaining unmodified LAP sites were labeled under forcing conditions with lipoic acid (200 μM lipoic acid, 1 mM ATP, and 20 μM wild-type LplA for 20 min). Anti-lipoic acid antibody staining was used to quantify the extent of lipoylation, and CuAAC was performed thereafter with 20 μM Alexa Fluor® 647-alkyne, 100 μM CuSO4, and 500 μM BTTAA ligand for 5 min. Cells were imaged live. B: Representative confocal images. Results obtained using picolyl azide 8 (condition 2) are shown below results with 8-azidooctanoic acid (condition 1). A negative control with neither azide added during the LplA step is shown in the bottom row (condition 3). The Alexa Fluor® 647 channel reflects CuAAC labeling. The Alexa Fluor® 568 channel reflects anti-lipoic acid antibody labeling. The CFP channel showing LAP-CFP-TM expression is overlaid on DIC. Scale bars, 10 μm. C: Quantitation of data in (B). The mean intensities in all three channels were collected for >90 single cells for each condition. To compare the extents of lipoylation, the Alexa Fluor® 568/CFP ratios were calculated (to normalize for variations in LAP expression level), averaged, and plotted on the graph. CuAAC labeling extent was quantified in a similar way. Error bars, ±s.e.m. Due to the forcing conditions of the LplA-catalyzed lipoylation, we set condition 3 to represent 100% lipoylation extent for the cell surface LAP-CFP-TM population. By comparison, lipoylation after picolyl azide 8 labeling proceeds to 19% that of condition. Lipoylation after 8-azidooctanoic acid labeling proceeds to 37% that of condition 3. Based on these, we can indirectly estimate that picolyl azide 8 ligation proceeds to 81%, and 8-azidooctanoic acid ligation proceeds to 63%, under these conditions.
Live HEK cells were incubated with rabbit anti-lipoic acid antibody (Calbiochem) in cell growth medium at 1:300 dilution for 10 min at room temperature, followed by two washes with cell growth medium. Thereafter, cells were incubated with anti-rabbit secondary antibody conjugated to Alexa Fluor® 568 (Life Technologies) in cell growth medium at 1:300 dilution for 10 min at room temperature, followed by two washes with cell growth medium.

LAP-CFP-TM on HEK cells [4] = assay: Two-step cell surface protein labeling, PRIME followed by CuAAC (Alexa Fluor 647/CFP ratio); type: cell-based, human
Description: FIG. 6 is a diagram showing comparison of protein labeling signals on live cells using PRIME and CuAAC, with and without chelating azides. Two-step site-specific protein labeling was performed as in FIG. 3B above and 9 below, on HEK cells expressing LAP-tagged cyan fluorescent protein fused to the transmembrane domain of the PDGF receptor (LAP-CFP-TM). In the first step, either W37VLplA was used to target picolyl azide 8 to LAP, or wild-type LplA was used to ligate non-chelating 8-azidooctanoic acid. The efficiencies of these two ligation reactions are compared in FIG. S5. In the second step, CuAAC was performed for 5 min with Alexa Fluor® 647-alkyne and CuSO4 (10, 40, or 100 μM) in combination with either THPTA or BTTAA ligand (provided in 5-fold excess relative to the CuSO4 concentration). To quantify labeling signals, the mean Alexa Fluor® 647 and mean CFP intensities were calculated for >90 cells for each condition, ratioed to normalize for variations in LAP-CFP-TM expression level, and averaged. Error bars, ±s.e.m.
A: Two-step site-specific cell surface protein labeling protocol. In the first step, HEK cells expressing LAP-CFP-TM (TM is the transmembrane helix of the PDGF receptor) were labeled with picolyl azide 8 using W37VLplA and ATP added to the cell medium for 20 min. Alternatively, LAP-CFP-TM was labeled with non-chelating azide 8-azidooctanoic acid using wild-type LplA. In the second step, CuAAC was performed for 5 min using Alexa Fluor® 647-alkyne, various concentrations of CuSO4 (10, 40, or 100 μM), and either THPTA or BTTAA ligand added in 4-fold excess of the CuSO4. B: Representative confocal cell images for twelve different conditions (three CuSO4 concentrations, either THPTA or BTTAA ligand, and either alkyl azide or picolyl azide). For each condition, the Alexa Fluor® 647 labeling channel and the CFP channel, overlaid on DIC, are shown. Insets show the Alexa Fluor® 647 channel at higher contrast. Scale bars, 10 μm.
LplA labeling was performed with picolyl azide 8,8-azidooctanoic acid, or 10-undecynoic acid. CuAAC was performed with either alkyne, picolyl azide, or alkyl azide conjugates to Alexa Fluor® 647. A: Representative images showing labeling of LAP-CFP-TM on the surface of live HEK cells under four different conditions. CFP channels are shown, along with Alexa Fluor® 647 labeling channels normalized to the same intensity range (bottom) or not normalized (middle). LplA labeling protocol for all four conditions: 200 μM azide or alkyne substrate, 10 μM LplA (wild-type or mutant), 1 mM ATP, and 5 mM Mg(OAc)2 in cell culture medium for 20 min. […] B: Quantitation of data in (A). Average Alexa Fluor® 647/CFP intensity ratios were calculated for ˜50 single cells from each condition. […]

[5] = conjugation to LAP, previously reported

COc1ccnc(CN=[N+]=[N-])c1 [Azide 6, 2-Azidomethyl-4-methoxypyridine]
effect of ring substituent on CuAAC reaction [1]: further accelerated the CuAAC reaction

O=C(O)CCCC[C@@H]1CCSS1 (racemic) [lipoic acid]
kcat (Wild-type LplA; lipoic acid ligation by wild-type LplA): 0.22 s⁻¹

[N-]=[N+]=NCc1ccc(C(=O)O)cn1 [Azide 4, 6-Azidomethylnicotinic acid]
improvement in initial CuAAC rate over carbocyclic analog [1]: 14 fold
time for CuAAC reaction to completion ([1]; THPTA absent, 100 and 40 uM Cu): ≤ 30 min
time for CuAAC reaction to completion ([1]; THPTA added, all three copper concentrations (10, 40, 100 μM)): ≤ 5 min

[N-]=[N+]=NCc1ccc(C(=O)O)cc1 [Azide 3, 4-azidomethylbenzoic acid, reference compound]
time for CuAAC reaction to completion ([1]; THPTA added, 100 and 40 uM Cu): ≤ 30 min

[N-]=[N+]=NCc1ccccn1 [Azide 2, 2-azidomethylpyridine]
improvement in initial CuAAC rate over carbocyclic analog [1]: 43 fold

6,8-difluoro-7-hydroxycoumarin [Pacific Blue]
pKa of 7-OH substituent [2]: 3.7

[N-]=[N+]=NCc1ccc(C(=O)NCCCCC(=O)O)cn1 [Picolyl azide 8, 5-(6-(Azidomethyl)nicotinamido)pentanoic acid]
lipoylation of remaining LAP sites after azide labeling, relative to condition 3 (100%) (LAP-CFP-TM on HEK cells [3]): 19%
difference in ligation extent over 8-azidooctanoic acid ligation (LAP-CFP-TM on HEK cells [3]; 20 min labeling conditions): at most 1.5 fold
estimated extent of azide ligation (LAP-CFP-TM on HEK cells [3]): 81%
signal of picolyl azide ligation followed by fluorophore-alkyne relative to alkyne ligation followed by fluorophore-picolyl azide (LAP-CFP-TM on HEK cells [4]; 100 μM CuSO4, 500 μM THPTA, 5 min (FIG. 13)): ~2.4 fold
boost of cell signal on replacement of 8-azidooctanoic acid, corrected for enzymatic ligation efficiencies (LAP-CFP-TM on HEK cells [4]; 10, 40, 100 μM Cu, THPTA or BTTAA, corrected): ≤ 25 fold
signal relative to alkyl azide at 100 μM Cu (+THPTA), corrected value (LAP-CFP-TM on HEK cells [4]; picolyl azide at 10 μM Cu (+THPTA)): 1.6 fold
signal relative to alkyl azide at 100 μM Cu, corrected value (LAP-CFP-TM on HEK cells [4]; picolyl azide at 40 μM Cu, BTTAA): 3.9 fold

[N-]=[N+]=NCCCCCCCC(=O)O [8-azidooctanoic acid, reference compound]
lipoylation of remaining LAP sites after azide labeling, relative to condition 3 (100%) (LAP-CFP-TM on HEK cells [3]): 37%
estimated extent of azide ligation (LAP-CFP-TM on HEK cells [3]): 63%
Km (Wild-type LplA; [5]): 127 µM
kcat (Wild-type LplA; [5]): 0.111 s⁻¹

[N-]=[N+]=NCc1cc(Cl)ccn1 [Azide 7, 2-Azidomethyl-4-chloropyridine]
effect of ring substituent on CuAAC reaction [1]: dampened the accelerating effect
